Measured values from the supplement of paper PMC13380429.

Columns and labels:
Conditions in all cases: 72 h
Caco-2 [1] = assay: cell viability relative to DMSO; higher = less toxic
Calu-3 [2] = assay: as above
HepG2 [3] = assay: as above
U2OS [4] = assay: as above
Vero E6 [5] = assay: as above
Caco-2 [6] = assay: relative viability EC50 (midpoint between 100% and the lowest measured viability); higher = less toxic
Calu-3 [7] = assay: as above
HepG2 [8] = assay: as above
U2OS [9] = assay: as above
Vero E6 [10] = assay: as above
Caco-2 [11] = assay: drug sensitivity score (DSS) for viability; higher = more toxic; extreme values may be limits of the assay
Calu-3 [12] = assay: as above
HepG2 [13] = assay: as above
U2OS [14] = assay: as above
Vero E6 [15] = assay: as above

In the case of O=C(CCCCCCNC(=O)c1cnc(N(c2ccccc2)c2ccccc2)nc1)NO [ACY-1215], the cell viability (Caco-2 [1]; 1 nM) is reported as 108%, the cell viability (Caco-2 [1]; 10 nM) is reported as 92.8% and the cell viability (Caco-2 [1]; 100 nM) is reported as 106%. The cell viability (Caco-2 [1]; 1000 nM) was 94.3%, the cell viability (Caco-2 [1]; 10000 nM) was 27.2% and the cell viability (Calu-3 [2]; 1 nM) was 107%. For the same molecule, the cell viability (Calu-3 [2]; 10 nM) was 93.5%, the cell viability (Calu-3 [2]; 100 nM) was 100% and the cell viability (Calu-3 [2]; 1000 nM) was 82%. For the same molecule, the cell viability (Calu-3 [2]; 10000 nM) was 38.6%, the cell viability (HepG2 [3]; 1 nM) was 96.5% and the cell viability (HepG2 [3]; 10 nM) was 108%. The cell viability (HepG2 [3]; 100 nM) was 87.3%, the cell viability (HepG2 [3]; 1000 nM) was 86% and the cell viability (HepG2 [3]; 10000 nM) was 16.2%. For the same molecule, the cell viability (U2OS [4]; 1 nM) was 102%, the cell viability (U2OS [4]; 10 nM) was 101% and the cell viability (U2OS [4]; 100 nM) was 107%. For the same molecule, the cell viability (U2OS [4]; 1000 nM) was 88.6%, the cell viability (U2OS [4]; 10000 nM) was 33.3% and the cell viability (Vero E6 [5]; 1 nM) was 92.9%. It also gave a cell viability (Vero E6 [5]; 10 nM) of 100%, a cell viability (Vero E6 [5]; 100 nM) of 94.2% and a cell viability (Vero E6 [5]; 1000 nM) of 96.9%. For the same molecule, the cell viability (Vero E6 [5]; 10000 nM) was 47.7%, the “relative viability EC50” value (Caco-2 [6]) was 2530 nM and the “relative viability EC50” value (Calu-3 [7]) was 1420 nM. For the same molecule, the “relative viability EC50” value (HepG2 [8]) was 1890 nM, the “relative viability EC50” value (U2OS [9]) was 1870 nM and the “relative viability EC50” value (Vero E6 [10]) was 2700 nM. For the same molecule, the drug sensitivity score (Caco-2 [11]) was 4.9, the drug sensitivity score (Calu-3 [12]) was 6 and the drug sensitivity score (HepG2 [13]) was 7. For the same molecule, the drug sensitivity score (U2OS [14]) was 5.6 and the drug sensitivity score (Vero E6 [15]) was 3.2.

CCN1CCN(Cc2ccc(-c3cc4c(N[C@H](C)c5ccccc5)ncnc4[nH]3)cc2)CC1 [AEE788] showed a cell viability (Caco-2 [1]; 1 nM) of 89.5%, a cell viability (Caco-2 [1]; 10 nM) of 91.9% and a cell viability (Caco-2 [1]; 100 nM) of 94.8%. It also gave a cell viability (Caco-2 [1]; 1000 nM) of 81.9%, a cell viability (Caco-2 [1]; 10000 nM) of 78% and a cell viability (Calu-3 [2]; 1 nM) of 100%. The cell viability (Calu-3 [2]; 10 nM) was 103%, the cell viability (Calu-3 [2]; 100 nM) was 84.9% and the cell viability (Calu-3 [2]; 1000 nM) was 38.1%. It also gave a cell viability (Calu-3 [2]; 10000 nM) of 3.7%, a cell viability (HepG2 [3]; 1 nM) of 109% and a cell viability (HepG2 [3]; 10 nM) of 95.4%. The cell viability (HepG2 [3]; 100 nM) was 98.1%, the cell viability (HepG2 [3]; 1000 nM) was 110% and the cell viability (HepG2 [3]; 10000 nM) was 82.5%. It also gave a cell viability (U2OS [4]; 1 nM) of 98.7%, a cell viability (U2OS [4]; 10 nM) of 95.7% and a cell viability (U2OS [4]; 100 nM) of 97.8%. It also gave a cell viability (U2OS [4]; 1000 nM) of 86.7%, a cell viability (U2OS [4]; 10000 nM) of 44.7% and a cell viability (Vero E6 [5]; 1 nM) of 97.6%. It also gave a cell viability (Vero E6 [5]; 10 nM) of 94.7%, a cell viability (Vero E6 [5]; 100 nM) of 82.2% and a cell viability (Vero E6 [5]; 1000 nM) of 54.4%. The cell viability (Vero E6 [5]; 10000 nM) was 27.1%, the “relative viability EC50” value (Caco-2 [6]) was > 10000 nM and the “relative viability EC50” value (Calu-3 [7]) was 548 nM. The “relative viability EC50” value (HepG2 [8]) was > 10000 nM, the “relative viability EC50” value (U2OS [9]) was 1580 nM and the “relative viability EC50” value (Vero E6 [10]) was 435 nM. It also gave a drug sensitivity score (Caco-2 [11]) of 2.4, a drug sensitivity score (Calu-3 [12]) of 13.7 and a drug sensitivity score (HepG2 [13]) of 0.2. It also gave a drug sensitivity score (U2OS [14]) of 5.1 and a drug sensitivity score (Vero E6 [15]) of 10.9.

For Cc1c(CN(C)C(=O)/C=C/c2cnc3c(c2)CCC(=O)N3)oc2ccccc12 [AFN-1252], the cell viability (Caco-2 [1]; 1 nM) was 95%, the cell viability (Caco-2 [1]; 10 nM) was 93.1% and the cell viability (Caco-2 [1]; 100 nM) was 99%. For the same molecule, the cell viability (Caco-2 [1]; 1000 nM) was 101%, the cell viability (Caco-2 [1]; 10000 nM) was 97.1% and the cell viability (Calu-3 [2]; 1 nM) was 103%. For the same molecule, the cell viability (Calu-3 [2]; 10 nM) was 98.5%, the cell viability (Calu-3 [2]; 100 nM) was 102% and the cell viability (Calu-3 [2]; 1000 nM) was 108%. For the same molecule, the cell viability (Calu-3 [2]; 10000 nM) was 98.1%, the cell viability (HepG2 [3]; 1 nM) was 110% and the cell viability (HepG2 [3]; 10 nM) was 92.6%. For the same molecule, the cell viability (HepG2 [3]; 100 nM) was 106%, the cell viability (HepG2 [3]; 1000 nM) was 90.2% and the cell viability (HepG2 [3]; 10000 nM) was 110%. It also gave a cell viability (U2OS [4]; 1 nM) of 97.9%, a cell viability (U2OS [4]; 10 nM) of 101% and a cell viability (U2OS [4]; 100 nM) of 98.5%. The cell viability (U2OS [4]; 1000 nM) was 101%, the cell viability (U2OS [4]; 10000 nM) was 102% and the cell viability (Vero E6 [5]; 1 nM) was 94.2%. It also gave a cell viability (Vero E6 [5]; 10 nM) of 87.9%, a cell viability (Vero E6 [5]; 100 nM) of 93.6% and a cell viability (Vero E6 [5]; 1000 nM) of 91.3%. For the same molecule, the cell viability (Vero E6 [5]; 10000 nM) was 97.7%, the “relative viability EC50” value (Caco-2 [6]) was > 10000 nM and the “relative viability EC50” value (Calu-3 [7]) was > 10000 nM. The “relative viability EC50” value (HepG2 [8]) was > 10000 nM, the “relative viability EC50” value (U2OS [9]) was > 10000 nM and the “relative viability EC50” value (Vero E6 [10]) was > 10000 nM. The drug sensitivity score (Caco-2 [11]) was 0, the drug sensitivity score (Calu-3 [12]) was 0 and the drug sensitivity score (HepG2 [13]) was 0. For the same molecule, the drug sensitivity score (U2OS [14]) was 0 and the drug sensitivity score (Vero E6 [15]) was 0.
